Assays:
Raw264.7 macrophages = test: Cell viability (MTS) assay, cytotoxicity in Raw 264.7 macrophages; assay type: cell-based, mouse; settings: Raw264.7 macrophages, 0, 0.1, 0.25, 0.5 and 1 μM, 24 h incubation
Method: Murine macrophage RAW 264.7 (ATCC, Manassas, VA, USA) were cultured with AMEM/10% FBS and antibiotics at 37° C. in a humidified atmosphere with 5% CO2. Primary human monocytes were isolated from whole blood obtained from healthy volunteers. Briefly, blood was centrifuged on a Ficoll-Paque density gradient, according to the manufacturer's recommendations. Isolated monocytes were then cultured in RPMI 1640 medium supplemented with 10% FBS, and antibiotics. All donors provided written, informed consent for the use of their blood for research purposes. Experimental protocols were approved by the Research Ethics Board of the “[…] du Sacré-Coeur de Montreal”. Raw264.7 cells were treated for 24 hours with increasing concentrations of compounds I-1 and I-2 (0, 0,1, 0,25, 0,5, and 1 μM). Cell viability was assessed with MTS assay kit (Promega Corporation, Madison, WI, USA), as described by the manufacturer. Absorbance was measured with the micro-ELISA Vmax photometer (Bio-Tek Instruments, Winooski, VT, USA). Cell viability was evaluated by 3-(4,5-dimethyl-thiazoyl)-2,5-diphenyl-SH-tetrazolium bromide assay. ANOVA test was performed to compare the results. Results are expressed as mean±SEM for n=3. This part of the experiment was designed to test the cytotoxic effect of compounds 1-1 and 1-2 on mouse Raw264.7 macrophages. […]

TNFα = test: Inhibition of IL-1β-induced TNFα production in Raw264.7; assay type: cell-based, mouse; settings: Raw264.7, 1 μM, pretreated 1 h then 1 ng/ml IL-1β for 24 h, compared to IL-1β alone
Method: (§1) Murine macrophage RAW 264.7 (ATCC, Manassas, VA, USA) were cultured with AMEM/10% FBS and antibiotics at 37° C. in a humidified atmosphere with 5% CO2. Primary human monocytes were isolated from whole blood obtained from healthy volunteers. Briefly, blood was centrifuged on a Ficoll-Paque density gradient, according to the manufacturer's recommendations. Isolated monocytes were then cultured in RPMI 1640 medium supplemented with 10% FBS, and antibiotics. All donors provided written, informed consent for the use of their blood for research purposes. Experimental protocols were approved by the Research Ethics Board of the “Hôpital du Sacré-Coeur de Montreal”.
It is well-documented that the RvD1 is considered as a potent anti-inflammatory mediator. Thus, the purpose of this part of the present study was to investigate whether compounds I-1 and I-2's capacity to inhibit pro-inflammatory cytokines, such as TNFα. To do so, Raw264.7 were pretreated with compounds I-1 and I-2 at different concentrations (0, 0.1, 0.5, and 1-μM) for 1h, followed by exposure to 1 ng/ml IL-1β for 24 h. […] As such, it may be concluded that compounds I-1 and I-2 inhibit TNFα production.

[1] = test system: human isolated monocytes/macrophages-RANKL/M-CSF-derived osteoclasts; test: TRAP staining, osteoclast differentiation of RANKL/M-CSF-treated human monocytes; assay type: cell-based; settings: 500 nM, 14 days, 50 ng/ml RANKL and 10 ng/ml M-CSF
Method: as §1
Isolated human monocytes were isolated as described previously, seeded in chambered cell culture slides at 8×10^4 cells/well, and treated with 50 ng/ml RANKL and 10 ng/ml M-CSF in the presence or absence of 500 nM of compounds I-1 and I-2 for 14 days. Culture medium was changed every 3 days. TRAP staining performed as recommended by the manufacturer. […] Results are shown in FIG. 3, where arrows show osteoclasts with three nuclei or more (b). R=RANKL; M=M-CSF.
Here, the impact of RvD1 analogues treatment on human isolated monocytes/macrophages-RANKL/M-CSF-derived osteoclasts was eveluated, by measuring their phenotypic markers, namely TRAP. […]

[2] = H2O2-induced hyaluronic acid fragmentation (agarose gel, Stains-All); settings: HA 1 mg/ml, pretreated 1 hour at 1 or 10 μM, then 1 mM H2O2 for 4 hours; preliminary data
Method: Commercial hyaluronic acid was solubilised in sterilized PBS (1 mg/ml) during overnight under gentile shaking. The solution was pretreated with N-acetyl-Cysteine (NAC), RvD1, compounds I-1 and I-2 at 1 or 10 μM for 1 hour and then treated with 1 mM H2O2 during 4 hours. Samples were mixed in loading buffer containing 1M sucrose and loaded in 1% agarose/1× Tris-borate-EDTA (TBE) and pre-run the gel for 6 hours at 40V in 1× TBE buffer. The gel was then equilibrated with 30% ethanol in water and stained with Stains-All solution containing 0.1 mg Stains-All and 30% ethanol for overnight in the dark. Next, the gel was equilibrated in water for 1 hour and then exposed to light for destaining. Finally, hyaluronic acid was visualized using Alpha Imager under light transillumination. Results are shown in FIG. 4, where arrows show hyaluronic acid fragments (n=2), Al=I-1; A2=I-2.
This part of experiments was designed to investigate the ability of RvD1 analogues to protect hyaluronic acid against H2O2-induced degradation (antioxidant effect). To do so, the polymer at 1 mg/ml was pretreated by RvD1 and their analogues for 1 hour and then after treated with 1 mM H2O2 for 4 hours.

[3] = test system: osteoclasts from monocytes of peripheral blood of healthy donors; test: Osteoclast recruitment: differentiation of peripheral blood monocytes into osteoclasts (TRAP-positive cells); assay type: cell-based, human; settings: 500 ng, 14 days, 50 ng/ml RANKL + 10 ng/ml M-CSF, 2×10^5 monocytes/chamber (n=3)
Method: The effect of RvD1 analogs on the differentiation of macrophages into osteoclasts was investigated. Monocytes from peripheral blood of healthy donors were cultured in culture chambers at 2×10^5 monocytes/chamber in the presence of 50 ng/ml RANKL+10 ng/ml M-CSF for 14 days, in the presence or absence of 500 ng of compounds I-1 and I-2 (n=3).

[4] = test system: human monocyte-derived osteoclasts; test: Hydroxyapatite matrix resorption by human monocyte-derived osteoclasts (von Kossa staining); assay type: cell-based; settings: 500 nM, M-CSF/RANKL-differentiated cells, p<0.01 (n=3)
Source text: The effect of RvD1 analogs on the resorption activity of human monocyte-derived osteoclasts was investigated. Results were obtained as described in Benabdoun et al. 2019 and are shown in FIG. 10, where data were expressed as % resorption area/osteoclast with three nuclei or more (n=3).

MMP-13 = test: Inhibition of MMP-13 production in human OA chondrocytes; assay type: cell-based; settings: Chondrocyte, IL-1β 1 ng/ml one hour then compound 24 hours
Method: The effect of RvD1 analogs on the expression of MMP-13, a key enzyme involved in the degradation of OA cartilage, was investigated. Chondrocytes from human osteoarthritic cartilage were treated with IL-1β (1 ng/ml) for one hour followed by another treatment with RvD1 and its analogues for 24 hours.

[5] = Ultraviolet-induced hyaluronic acid (HA) degradation; settings: 1 μM, HA 1 mg/ml in PBS, UV for 4 hours (n=3)
Method: In order to study the protective effect of RvD1 and its analogs on the stability of hyaluronic acid (HA), a solution of commercial HA was prepared in PBS at a concentration of 1 mg/ml, then exposed to Ultraviolet rays (UV) for 4 hours in the presence or absence of RvD1 and compounds I-1 and I-2 at a dose of 1 μM. 20 μg of HA were loaded into an agarose gel (1% prepared in TBE buffer). After 4 hours of migration at 40 volts, the HA was visualized after staining with Stains-All dissolved in 30% ethanol.

[6] = Reactive oxygen species (ROS) production in acellular environment (DCFH-DA probe); settings: 1 μM, ROS generated with CuCl2 (1 mM) and H2O2 (1 mM) for 10 min
Method: ROS were generated by incubating in black 96-well plate with CuCl2 (1 mM) with H2O2 (1 mM) for 10 min. Subsequently, RvD1, I-1 and I-2 at 1 μM were added before the addition of the DCFH-DA probe.

human OA chondrocytes = test: Reactive oxygen species (ROS) production in human OA chondrocytes (DCFH-DA probe); assay type: cell-based; settings: 1 μM, 0.5 mM H2O2 for 2 hours
Method: In a second step, the study was continued to explore the antioxidant effect of RvD1 and compounds I-1 and I-2 in a cell medium. Thus, human OA chondrocytes with osteoarthritis were seeded in black plates at a rate of 5×10^4 cells per well in 10% FBS DMEM medium (phenol red free) and incubated for 24 h at 37° C., and then treated with 0.5 mM H2O2 for 2 hours in the presence or absence of RvD1 and the compounds I-1 and I-2 at a concentration of 1 μM. The generation of ROS was measured by the addition of 10 μM of the DCFH-DA probe and fluorescence was measured using a microplate reader with Fluorescence Polarization (Polar Star Optima, BMG Labtech) set up at ex. 485 nm and em. 530 nm.

COX-2 [7] = test: COX-2 expression in human OA chondrocytes by Western blot; assay type: cell-based; settings: 10 μM, 1 hour then IL-1β 1 ng/ml for 24 hours
Method: Cells were seeded in 24-well flat plates at a confluence of 5×10^5 cells per well in 10% FBS DMEM medium and incubated for 24 h at 37° C. Then, the cells were treated with I-1 at different doses (0-10 μM) for 1 hour followed by a second treatment with IL-1β for 24 hours (1 ng/ml). COX-2 expression was assessed by Western blot by specific anti-COX-2 antibody.

COX-2 [8] = test: COX-2 protein expression by Western blotting in Raw264.7 macrophages; assay type: cell-based, mouse; settings: Raw264.7 macrophages, 0, 0.25, 0.5, 1 μM for 1 hour, then 1 ng/ml IL-1β for 24 hours (n=2)
Method: 20 μg of total proteins of Raw264.7 macrophages lysates, treated under the indicated conditions, were loaded for discontinuous 4-12% sodium dodecyl sulfate-polyacrylamide gel electrophoresis. They were then transferred electrophoretically onto nitrocellulose membranes (Bio-Rad Laboratories, Mississauga, ON, Canada) for protein immunodetection and semi-quantitative measurement. The primary antibodies deployed were rabbit anti-COX-2 (Cayman Chemical Company) and mouse anti-β-actine (Sigma). […] Immunoreactive proteins were detected with SuperSignal blotting substrate (Pierce, Rockford, IL) and exposed to Kodak X-Omat™ film (Eastman Kodak Company, Rochester, NY).
Here, the hypothesis whether RvD1 analogues have the ability to modulate COX-2 protein expression was tested. Raw264.7 macrophages were pretreated with increasing doses of compound I-2 (0, 0.25, 0.5, 1-μM) for 1 hour and treated then after with 1 ng/ml IL-1β for 24 hours.

Q: Which cell viability (Raw264.7 macrophages) does the source give for `CCCCC[C@H](O)c1c(/C=C/[C@@H](O)[C@@H](O)C/C=C\CCC(=O)OC)nc(C)n1C` [I-1, methyl (4Z,7S,8R,9E)-7,8-dihydroxy-10-(5-((S)-1-hydroxyhexyl)-1,2-dimethyl-1H-imidazol-4-yl)deca-4,9-dienoate] here?
A: Its cell viability is “did not alter the cell viability”.

Q: And the “reduction of TNFα level” value (TNFα)?
A: The value was 40%.

Q: What about the “osteoclasts differentiation (TRAP)” value [1] of the same compound?
A: The value was “strongly prevent osteoclasts differentiation”.

Q: What about the “H2O2-induced hyaluronic acid fragmentation” value [2] of the same compound?
A: Its value is “prevent H2O2-induced fragmentation”.

Q: What about the “formation of osteoclasts (3 or more nuclei)” value [3] of the same compound?
A: Its value is “inhibited the formation of large osteoclasts”.

Q: What about the “erosion of the hydroxyapatite matrix (% resorption area/osteoclast)” value [4] of the same compound?
A: The value was “significantly reduced erosion of the hydroxyapatite matrix to almost control level”.

Q: What about the inhibition at 20 µM (MMP-13) of the same compound?
A: Its inhibition at 20 µM is roughly 20%.

Q: And the “HA degradation by UV exposure” value [5]?
A: The value was “prevents HA degradation by UV exposure”.

Q: What about the “level of ROS in acellular medium” value [6] of the same compound?
A: Its value is “level of ROS decreases”.

Q: And the “generation of ROS by chondrocytes” value (human OA chondrocytes)?
A: The value was “significantly reduced the generation of ROS”.

Q: What about the COX-2 expression (COX-2 [7]) of the same compound?
A: The COX-2 expression was “reduces COX-2 expression”.

Q: What does the source list for `CCCCC[C@H](O)c1c(/C=C/[C@@H](O)[C@@H](O)C/C=C\CCC(=O)O)nc(C)n1C` [I-2, (4Z,7S,8R,9E)-7,8-dihydroxy-10-(5-((S)-1-hydroxyhexyl)-1,2-dimethyl-1H-imidazol-4-yl)deca-4,9-dienoic acid]?
A: cell viability (Raw264.7 macrophages): did not alter the cell viability; reduction of TNFα level (TNFα): 40%; osteoclasts differentiation (TRAP) [1]: strongly prevent osteoclasts differentiation; H2O2-induced hyaluronic acid fragmentation [2]: prevent H2O2-induced fragmentation; IL-1β-induced COX-2 protein expression (COX-2 [8]): reduced IL-1β-induced COX-2 protein expression; formation of osteoclasts (3 or more nuclei) [3]: inhibited the formation of large osteoclasts; erosion of the hydroxyapatite matrix (% resorption area/osteoclast) [4]: significantly reduced erosion of the hydroxyapatite matrix to almost control level; inhibition at 20 µM (MMP-13): ~20%; HA degradation by UV exposure [5]: prevents HA degradation by UV exposure; level of ROS in acellular medium [6]: level of ROS decreases; generation of ROS by chondrocytes (human OA chondrocytes): significantly reduced the generation of ROS

Q: Which results are given for `CC/C=C\C[C@H](O)/C=C/C=C\C=C\C=C\[C@@H](O)[C@@H](O)C/C=C\CCC(=O)O` [RvD1, 7S,8R,17S-trihydroxy-4Z,9E, 11E,13Z,15E,19Z-docosahexaenoic acid, reference compound]?
A: H2O2-induced hyaluronic acid fragmentation [2]: prevent H2O2-induced fragmentation; inhibition at 10 µM (MMP-13; 10 μM): ~20%; HA degradation by UV exposure [5]: prevents HA degradation by UV exposure; level of ROS in acellular medium [6]: level of ROS decreases; generation of ROS by chondrocytes (human OA chondrocytes): significantly reduced the generation of ROS

From patent US12398122B2, “Resolvin analogs compounds, methods and uses thereof” (VALORISATION RECHERCHE HSCM, LIMITED PARTNERSHIP, priority 2022, dated 2025)
